Here are results for 2 molecules from patent US20250242043A1, “ANTIBODY-DRUG CONJUGATE COMPRISING ANTIBODY AGAINST HUMAN TROP2 AND USE THEREOF” (priority 2022, published 2025).

Experiment in all cases: In vitro cytotoxicity (cell proliferation inhibition), SRB dye or Cell titer glo
What all share (type): cell-based, human

The test system of one data set is DLD-1. Conditions: DLD-1, 144 hours. On the procedure: (§1) The cell proliferation inhibitory activity of the ADC produced according to <Example 2> and the drug alone included in the ADC against cancer cell lines were measured.
(§2) Specifically, human pancreatic cancer cell lines (BxPC-3, Capan-1, and PATU-8988s), breast cancer cell lines (JIMT-1 and MDA-MB-468), gastric cancer cell lines (NCI-N87, SNU-601, and SNU-620), colon cancer cell lines (HCT15, HT29, DLD-1, SW480, and COLO205), an ovarian cancer cell line (OVCAR-3), prostate cancer cell lines (PC-3 and LNCaP), and non-small cell lung cancer cell lines (NCI-H1781, HCC827, Calu-1, and Calu-3), which are commercially available as cancer cell lines, were used. MMAE as a drug alone included in the ADC prepared according to Example 3 and SG2057 (CAS #: 260417-62-7, MedKoo Biosciences) as a PBD dimer were used. 500 cells/well to 5,000 cells/well of each cancer cell line were seeded into a 96-well plate and cultured for 24 hours, and then each of ADC1, ADC2 and ADC3 produced according to Example 3 and the drugs MMAE and SG2057 alone were treated at a concentration of […] to 100 nM (5-fold serial dilution). After 144 hours, the number of living cells was quantified using a sulforhodamine B (SRB) dye or Cell titer glo.

For a further data set, the system named is HCT15. Conditions: HCT15, 144 hours. On the procedure:
as §1, §2

The subject of another data set is HT29. Conditions: HT29, 144 hours. On the procedure:
as §1, §2

The next data set concerns BxPC-3. Conditions: BxPC-3, 144 hours. On the procedure:
as §1, §2

The test system of another data set is COLO205. Conditions: COLO205, 144 hours. On the procedure: as §1, §2
A further data set deals with Calu-1. Conditions: Calu-1, 144 hours. On the procedure: as §1, §2
In another data set the test system is Calu-3. Conditions: Calu-3, 144 hours. On the procedure:
as §1, §2

A further data set concerns Capan-1. Conditions: Capan-1, 144 hours. On the procedure: as §1, §2
The test system of a further data set is HCC827. Conditions: HCC827, 144 hours. On the procedure:
as §1, §2

Another data set concerns JIMT-1. Conditions: JIMT-1, 144 hours. On the procedure:
as §1, §2

Another data set has as its system LNCaP. Conditions: 144 hours. On the procedure: as §1, §2
A further data set deals with MDA-MB-468. Conditions: MDA-MB-468, 144 hours. On the procedure: as §1, §2
In the next data set the test system is NCI-H1781. Conditions: NCI-H1781, 144 hours. On the procedure: as §1, §2
The test system of a further data set is NCI-N87. Conditions: NCI-N87, 144 hours. On the procedure: as §1, §2
For the next data set, the system named is OVCAR-3. Conditions: OVCAR-3, 144 hours. On the procedure: as §1, §2
The next data set has as its system PC-3. Conditions: PC-3, 144 hours. On the procedure:
as §1, §2

For the next data set, the system named is Patu8988S. Conditions: 144 hours. On the procedure:
as §1, §2

The subject of the next data set is SNU-601. Conditions: SNU-601, 144 hours. On the procedure: as §1, §2
Another data set relates to SNU-620. Conditions: SNU-620, 144 hours. On the procedure: as §1, §2
The subject of a further data set is SW480. Conditions: SW480, 144 hours. On the procedure: as §1, §2

Square brackets hold non-standard residues; d marks the D form. Peptide text beside a SMILES is read from it. * marks the point of attachment. Dolaproine = CO[C@@H]([C@@H]1CCCN1)[C@@H](C)C(=O)O; Dil = CC[C@H](C)[C@H](NC)[C@@H](CC(=O)O)OC; X1 = C[C@@H](N*)[C@@H](O)c1ccccc1; NMeV = CN[C@H](C(=O)O)C(C)C

The term CC50 denotes the concentration that lowers cell viability or growth by half. For the molecule `C=C1C[C@H]2C=Nc3cc(OCCCCCOc4cc5c(cc4OC)C(=O)N4CC(=C)C[C@H]4C=N5)c(OC)cc3C(=O)N2C1` [SG2057], the CC50 in the data set on DLD-1 worked out at 0.05 nM; in the data set on HCT15, 0.161 nM; in the data set with HT29, 0.02 nM.
For `CC[C@H](C)[C@@H]([C@@H](CC(=O)N1CCC[C@H]1[C@H](OC)[C@@H](C)C(=O)N[C@H](C)[C@@H](O)c1ccccc1)OC)N(C)C(=O)[C@@H](NC(=O)[C@@H](NC)C(C)C)C(C)C` [MMAE, monomethyl auristatin E] (H-[NMeV]V[Dil][Dolaproine]-X1), the CC50 with BxPC-3 was found to be 0.606 nM; in the data set with COLO205 it was 0.628 nM; in the data set on Calu-1, 0.971 nM; in the data set with Calu-3, 0.4 nM; in the data set on Capan-1 it was 0.52 nM; with DLD-1, 8.88 nM. Besides, the 50% cytotoxic concentration (CC50) in the data set with HCC827 was 0.674 nM; in the data set with HCT15, 3.87 nM; in the data set with HT29, 0.33 nM; in the data set on JIMT-1, 0.154 nM; in the data set on LNCaP, 0.551 nM; in the data set on MDA-MB-468, 0.64 nM. Also, the 50% cytotoxic concentration (CC50) in the data set on NCI-H1781 was found to be 0.208 nM; in the data set with NCI-N87, 0.725 nM; in the data set with OVCAR-3, 0.304 nM; with PC-3 it was 0.946 nM; with Patu8988S it was 0.334 nM; with SNU-601, 0.268 nM. Further, the CC50 is 0.651 nM with SNU-620 and 3.83 nM with SW480.
